Reference: patent US20100261710A1, “HDAC Inhibitors” (ARQULE, INC., priority 2007, published 2010)
pIC50: −log10 of the molar value. Like-named read-outs stand apart in the source and are kept apart here.

What was measured:
[1] = target: T1, HDAC2 (Homo sapiens, UniProt Q92769); test: HDAC isoform assay, HDAC2; assay type: biochemical; settings: substrate KI-177; read-out: HDAC2, IC50, ELISA (KI-177)
T1 construct: purchased BioMol

[2] = system: Hut78 cells; test: MTS cell viability assay, Hut78; assay type: cell-based; settings: Homo sapiens; Hut78, 72 hr; read-out: Hut78, IG50, MTS
Method: (§1) The MTS cell viability assay was used to determine the potency of proliferation inhibitor with. MTS measures mitochondrial dehydrogenase activity and serves as surrogate readout for the number of viable cells.
(§2) For MTS assay, cells were plated in 96-well plates at 2000 cells per well and incubated in the presence of compounds for 72 hr. MTS was added to each well as instructed by manufacture (Promega) and plates were incubated for 4 h at 37° C. The absorbance of each well was measured at 490 nm using a microplate reader.

[3] = system: HCT-116 cells; test: MTS cell viability assay, HCT-116; assay type: cell-based; settings: Homo sapiens; for IC50: HCT-116, 72 h, read-out: HCT-116, IG50, MTS (uM); for pIC50: HCT-116, 72 hr, read-out: HCT-116, IG50, MTS
Method: as §1, §2

[4] = target: HDAC5 (Homo sapiens, UniProt Q9UQL6); test: HDAC isoform assay, HDAC5
[5] = system: HH cells; test: MTS cell viability assay, HH; assay type: cell-based; settings: Homo sapiens, 72 hr, read-out: HH, IG50, MTS
Method: The MTS cell viability assay was used to determine the potency of proliferation inhibitor with. MTS measures mitochondrial dehydrogenase activity and serves as surrogate readout for the number of viable cells. The protocol described below is based upon the “CellTiter 96 Aqueous Non-Radioactive Cell Proliferation Assay” sold by Promega (Technical Bulletin No. 169).
as §2

[6] = target: T2, HDAC1 (Homo sapiens, UniProt Q13547); test: HDAC-1 immunocapture fluorescent biochemical assay (HeLa lysate); settings: HDAC1 immunocaptured from HeLa extract
T2 construct: cell extract containing HDAC (HeLa in these experiments); endogenous in cells; host or cells: HeLa cell extract
Method: The HDAC-1 assay represents a novel immunocapture assay procedure. […] The HDAC1 is captured on a protein A coated plate using HDAC1 specific antibody, and is then allowed to react with the substrate.
This assay in performed in four general steps. In the first step (FIG. 1A), cell extract containing HDAC (HeLa in these experiments) is incubated with (cell signaling) rabbit polyclonal HDAC1 antibody (rabbit IgG antibody is used for background control) to allow binding of the enzyme to the antibody. In the second step, the complexed mixture is added to the protein A covered plate which captures the antibody. In the third step, after washing away unbound proteins, substrate and inhibitor are added and deacetylation is allowed to occur. […] The plate is then read on either Victor or Perkin Elmer Envision system using Umbilliferone filter set.
• A. HeLa extract complexed with HDAC1 antibody working solution (in DPBS):
Compound working solution (in HDAC buffer):
Compounds diluted in assay buffer at 2× Screening concentration. • D. Activator solution:
Trypsin (10 mg/mL) diluted 1:1600 in assay buffer containing 4 μM TSA.
Complexing of extract with antibody was carried out at room temperature for 60 min with rocking. Binding of complexes onto protein A plate was carried out at room temperature for 60 min in 50 μL. Reaction was carried out in […], in the protein A plate for 60 minutes at 37° C. 40 μL of the reaction was moved into white ½ area plate for activation and reading.
• 1. Set PIERCE Protein A plate to block with 150 μof 5% BSA in TB ST for 60 min at room temperature. • 2. […] Dilute complexes further ([…]) by addition of 3.5 mL of PBS (final total volume of 5 mL). • 4. Wash blocked protein A plate prior to complex addition with TBST. • 5. Add 50 μl of diluted complexes to Protein A plate and incubate for 60 min at room temperature. • 6. Wash plate with TB ST. • 7. Add 25 μl of diluted compounds (in HDAC buffer) to each well and incubate for 10 min at room temperature. • 8. […] Move 40 μl of reaction to a white plate and add 20 μl of activator/developer solution, mix thoroughly. • 10. Read plate.

[7] = system: HDACs (nuclear HeLa extract); test: pan-HDAC fluorescent biochemical assay with nuclear HeLa extract; settings: HDAC peptide substrate, 60 min at 37° C.
Method: Substrate was synthesized in house. Stocks were prepared in DMSO (10 mM).
Compound working solution: Compounds dissolved in assay buffer at 4× Screening concentration. Activator solution: Trypsin (10 mg/mL) diluted 1:1600 in Assay Buffer containing 4 μM TSA.
Total reaction Volume: 40 μL
Reaction was allowed to run for 60 minutes at 37° C.
2. Combine in a white ½ area well plate: 10 μl of 4× compound (or buffer), 15 μl of substrate and 15 μl of HeLa extract. Mix well
3. Incubate at 37° C. for 60 min.
4. Prepare Activator solution. Dilute Trypsin 1:1600 in Assay Buffer+4μM TSA. 20 μl is needed per assay point.
5. Add 20 μl of prepared activator solution and mix thoroughly.
The hydroxamic-acid based compounds of the present invention were tested in the biochemical assay for their pan-HDAC inhibitory activity.

T2 sequence (Q13547 whole entry): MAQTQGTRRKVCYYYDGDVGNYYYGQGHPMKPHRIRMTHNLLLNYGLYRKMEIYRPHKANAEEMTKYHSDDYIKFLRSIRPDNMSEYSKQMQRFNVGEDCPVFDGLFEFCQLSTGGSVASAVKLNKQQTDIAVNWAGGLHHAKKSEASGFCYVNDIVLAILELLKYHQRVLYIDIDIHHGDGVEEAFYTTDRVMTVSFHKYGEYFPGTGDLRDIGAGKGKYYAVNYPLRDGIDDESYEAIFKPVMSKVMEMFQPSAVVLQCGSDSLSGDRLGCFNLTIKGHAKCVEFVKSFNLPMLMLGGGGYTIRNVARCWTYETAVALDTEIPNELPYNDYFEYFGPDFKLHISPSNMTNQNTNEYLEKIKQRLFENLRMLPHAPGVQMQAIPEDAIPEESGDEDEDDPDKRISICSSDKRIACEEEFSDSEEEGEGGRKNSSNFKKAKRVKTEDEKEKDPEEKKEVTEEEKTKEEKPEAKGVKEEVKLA
HDAC5, sequence (Q9UQL6 whole entry, canonical isoform): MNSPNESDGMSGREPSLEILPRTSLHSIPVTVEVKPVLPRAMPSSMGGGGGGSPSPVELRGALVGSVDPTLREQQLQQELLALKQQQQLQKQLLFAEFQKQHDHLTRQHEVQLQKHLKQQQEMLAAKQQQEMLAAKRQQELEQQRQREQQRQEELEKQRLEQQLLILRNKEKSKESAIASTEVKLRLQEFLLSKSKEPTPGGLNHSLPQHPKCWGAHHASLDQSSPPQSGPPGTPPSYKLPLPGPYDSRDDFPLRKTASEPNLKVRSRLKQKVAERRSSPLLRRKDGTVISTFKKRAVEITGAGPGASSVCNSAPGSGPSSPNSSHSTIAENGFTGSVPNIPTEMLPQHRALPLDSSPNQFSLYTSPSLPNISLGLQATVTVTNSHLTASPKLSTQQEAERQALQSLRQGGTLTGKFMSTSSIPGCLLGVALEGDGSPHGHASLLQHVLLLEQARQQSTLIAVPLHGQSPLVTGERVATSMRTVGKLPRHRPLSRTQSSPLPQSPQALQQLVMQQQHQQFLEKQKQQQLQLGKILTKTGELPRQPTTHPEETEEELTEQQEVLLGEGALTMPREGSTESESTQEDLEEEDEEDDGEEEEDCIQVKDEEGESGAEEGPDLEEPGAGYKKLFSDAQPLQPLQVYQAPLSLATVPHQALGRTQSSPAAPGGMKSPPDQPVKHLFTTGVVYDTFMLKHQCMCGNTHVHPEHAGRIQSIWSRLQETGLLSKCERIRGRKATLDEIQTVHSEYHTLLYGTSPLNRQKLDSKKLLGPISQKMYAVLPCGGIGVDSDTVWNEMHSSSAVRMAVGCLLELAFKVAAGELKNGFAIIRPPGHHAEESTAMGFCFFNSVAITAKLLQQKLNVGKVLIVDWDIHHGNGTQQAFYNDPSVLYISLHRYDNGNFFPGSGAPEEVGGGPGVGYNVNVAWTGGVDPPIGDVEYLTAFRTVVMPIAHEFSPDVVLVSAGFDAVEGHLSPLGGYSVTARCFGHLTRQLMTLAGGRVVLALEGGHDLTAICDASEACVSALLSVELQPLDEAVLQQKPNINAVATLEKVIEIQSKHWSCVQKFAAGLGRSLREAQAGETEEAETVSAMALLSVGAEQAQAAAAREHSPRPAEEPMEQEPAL
T1 sequence (Q92769 whole entry, canonical isoform): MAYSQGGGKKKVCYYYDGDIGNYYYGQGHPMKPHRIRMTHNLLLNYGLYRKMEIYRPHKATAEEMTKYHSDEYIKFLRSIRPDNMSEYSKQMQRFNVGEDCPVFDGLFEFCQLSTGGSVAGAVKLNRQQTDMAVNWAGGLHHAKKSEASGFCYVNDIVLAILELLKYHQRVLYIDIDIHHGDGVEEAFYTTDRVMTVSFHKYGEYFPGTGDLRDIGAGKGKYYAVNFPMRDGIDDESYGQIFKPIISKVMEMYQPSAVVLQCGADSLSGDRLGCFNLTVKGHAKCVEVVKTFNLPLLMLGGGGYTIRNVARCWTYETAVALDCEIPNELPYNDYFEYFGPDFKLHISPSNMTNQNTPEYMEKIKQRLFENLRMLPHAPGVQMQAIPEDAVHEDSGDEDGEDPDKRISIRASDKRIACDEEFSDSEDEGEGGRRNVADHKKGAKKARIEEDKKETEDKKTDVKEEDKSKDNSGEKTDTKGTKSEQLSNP

| Structure (SMILES) | pIC50 [1] | pIC50 [2] | IC50 [3] | pIC50 [4] | pIC50 [5] | pIC50 [6] | pIC50 [7] | pIC50 [3] |
| --- | --- | --- | --- | --- | --- | --- | --- | --- |
| O=C(CCCCCCNC(=O)c1cn2c3c(cccc13)CCC2)NO [compound 3, N-[7-(hydroxyamino)-7-oxoheptyl]-5,6-dihydro-4H-pyrrolo[3,2,1-ij]quinoline-1-carboxamide] | 5.61 | 6.62 | 0.215 µM | 7.02 | 6.95 | 7.39 | 7.16 |  |
| O=C(CCCCCCNC(=O)C(=O)c1cn2c3c(cccc13)CCC2)NO [compound 12, 7-{[5,6-dihydro-4H-pyrrolo[3,2,1-ij]quinolin-1-yl(oxo)acetyl]amino}-N-hydroxyheptanamide] | 5.63 | 6.76 |  | 6.59 | 7.35 | 7.04 | 6.90 | 6.15 |
| O=C(CCCCCNC(=O)Nc1cn2c3c(cccc13)CCC2)NO [compound 13, 6-[(5,6-dihydro-4H-pyrrolo[3,2,1-ij]quinolin-1-ylcarbamoyl)amino]-N-hydroxyhexanamide] | 5.75 | 5.90 |  | 6.70 | 5.99 | 7.72 | 7.49 | 6.20 |
| O=C(CCCCCNC(=O)C(=O)c1cn2c3c(cccc13)CCC2)NO [compound 8, 6-{[5,6-dihydro-4H-pyrrolo[3,2,1-ij]quinolin-1-yl(oxo)acetyl]amino}-N-hydroxyhexanamide] | 5.74 |  | 0.737 µM | 6.79 | 5.58 | 7.35 | 6.94 |  |
| O=C(CCCCCCNC(=O)Nc1cn2c3c(cccc13)CCC2)NO [compound 11, 7-[(5,6-dihydro-4H-pyrrolo[3,2,1-ij]quinolin-1-ylcarbamoyl)amino]-N-hydroxyheptanamide] | 5.87 | 6.74 |  | 6.45 | 7.03 | 7.66 | 7.55 | 6.31 |
| O=C(CCCNC(=O)C(=O)c1cn2c3c(cccc13)CCC2)NO [compound 9, 4-{[5,6-dihydro-4H-pyrrolo[3,2,1-ij]quinolin-1-yl(oxo)acetyl]amino}-N-hydroxybutanamide] | 5.52 | 6.04 | 5.02 µM |  | 6.44 | 6.23 | 6.22 |  |
| O=C(CCCCCNC(=O)c1cn2c3c(cccc13)CCC2)NO [compound 2, N-[6-(hydroxyamino)-6-oxohexyl]-5,6-dihydro-4H-pyrrolo[3,2,1-ij]quinoline-1-carboxamide] | 5.71 | 5.53 | 0.63 µM | 7.04 | 5.76 | 7.88 | 7.24 |  |
